Data taken from patent publication US7087375B1, “Method for determining the mechanism of HIV RT inhibitors” (priority 2000, dated 2006).
Where “and” joins values, the source holds several entries; their conditions need not be identical. Equal values may be shown once. Read-outs that look alike come from different tables or passages of the source. Marks after values point to notes of the source that are not given here.

Experiments:
[1] = target: T1, HIV-1 RT mutant 41/67/70/184/215 (Human immunodeficiency virus type 1 group M subtype B, UniProt P04585, D654N/K657R/M628L/M771V/T802Y); format: biochemical; conditions: 41/67/70/184/215 RT
T1 construct: The final RT products, in a heterodimeric form (p66/p51); made in house; host or cells: E. coli XL1-Blue (vector pKK233-2)

[2] = target: T2, HIV-1 RT wild type (HXB2) (Human immunodeficiency virus type 1 group M subtype B, UniProt P04585); format: biochemical; conditions: for Fold resistance in RT-assay relative to HXB2: wild type HXB2 RT (reference); for Ki / Ki/Km: wild type HXB2 RT
T2 construct: The final RT products, in a heterodimeric form (p66/p51); made in house; host or cells: E. coli XL1-Blue (vector pKK233-2)

[3] = target: T3, HIV-1 RT mutant 41/184/215 (Human immunodeficiency virus type 1 group M subtype B, UniProt P04585, M628L/M771V/T802Y); format: biochemical; conditions: 41/184/215 RT
T3 construct: The final RT products, in a heterodimeric form (p66/p51); made in house; host or cells: E. coli XL1-Blue (vector pKK233-2)

[4] = target: T4, HIV-1 RT mutant 69S-SS (Human immunodeficiency virus type 1 group M subtype B, UniProt P04585, INS655SS/T656S); format: biochemical; conditions: 69S-SS RT
T4 construct: The final RT products, in a heterodimeric form (p66/p51); made in house; host or cells: E. coli XL1-Blue (vector pKK233-2)

[5] = target: T5, HIV-1 RT mutant 41/67/70/184/210/211/214/215 (Human immunodeficiency virus type 1 group M subtype B, UniProt P04585, D654N/K657R/L797W/L801F/M628L/M771V/R798K/T802Y); format: biochemical; conditions: 41/67/70/184/210/211/214/215 RT
T5 construct: The final RT products, in a heterodimeric form (p66/p51); made in house; host or cells: E. coli XL1-Blue (vector pKK233-2)

[6] = target: T6, HIV-1 RT mutant 69S-AG (Human immunodeficiency virus type 1 group M subtype B, UniProt P04585, INS655SA/T656G/T656S); format: biochemical; conditions: 69S-AG RT
T6 construct: The final RT products, in a heterodimeric form (p66/p51); made in house; host or cells: E. coli XL1-Blue (vector pKK233-2)

[7] = target: HIV-1 RT mutant 41/215 (Human immunodeficiency virus type 1 group M subtype B, UniProt P04585, M628L/T802Y); assay: RT inhibition assay (Lenti RT, polyrA/oligo(dT), BrdUTP); format: biochemical; conditions: 41/215 RT
[8] = target: T7, HIV-1 RT mutant 41/69S-SS/215 (Human immunodeficiency virus type 1 group M subtype B, UniProt P04585, INS655SS/M628L/T656S/T802Y); format: biochemical; conditions: 41/69S-SS/215 RT
T7 construct: The final RT products, in a heterodimeric form (p66/p51); made in house; host or cells: E. coli XL1-Blue (vector pKK233-2)

[9] = target: T8, HIV-1 RT mutant 41/67/70/215 (Human immunodeficiency virus type 1 group M subtype B, UniProt P04585, D654N/K657R/M628L/T802Y); format: biochemical; conditions: 41/67/70/215 RT
T8 construct: The final RT products, in a heterodimeric form (p66/p51); made in house; host or cells: E. coli XL1-Blue (vector pKK233-2)

[10] = target: T9, HIV-1 RT mutant 69S-SG (Human immunodeficiency virus type 1 group M subtype B, UniProt P04585, INS655SS/T656G/T656S); format: biochemical; conditions: 69S-SG RT
T9 construct: The final RT products, in a heterodimeric form (p66/p51); made in house; host or cells: E. coli XL1-Blue (vector pKK233-2)

[11] = system: wild type HXB2 virus; assay: HIV drug susceptibility assay (recombinant virus, MT-4 cells)
Description: Phenotypic susceptibility of these viable recombinant viruses to nucleoside analogs was then determined. […] Fold resistance values were calculated by dividing the mean 50% inhibitory concentration (IC50) for a recombinant virus from a mutant clone by the mean IC50 for recombinant wild type virus (HXB2).

[12] = system: HXB2 site-directed mutant T69S-SS; format: cell-based; conditions: virus T69S-SS
[13] = system: HXB2 site-directed mutant M41L, D67N, K70R, M184V, T215Y; format: cell-based; conditions: virus M41L
[14] = system: HXB2 site-directed mutant M41L, T69S-AG, T215Y; format: cell-based; conditions: virus M41L
[15] = system: HXB2 site-directed mutant M41L, T69S-SG, T215Y; format: cell-based; conditions: virus M41L
[16] = system: HXB2 site-directed mutant T69S-AG; format: cell-based; conditions: virus T69S-AG
[17] = system: HXB2 site-directed mutant M41L, M184V, T215Y; format: cell-based; conditions: virus M41L
[18] = system: HXB2 site-directed mutant D67N, K70R; format: cell-based; conditions: virus D67N
[19] = system: HXB2 site-directed mutant T69S-SG; format: cell-based; conditions: virus T69S-SG
[20] = system: HXB2 site-directed mutant M41L, T69S-SS, T215Y; format: cell-based; conditions: virus M41L
[21] = system: HXB2 site-directed mutant M41L, T215Y; format: cell-based; conditions: virus M41L
[22] = no extra additions (without ATP)
[23] = nontreated pyrophosphatase ATP 3.2 mM (control), single experiment
[24] = pyrophosphatase treated ATP 3.2 mM, single experiment

## AZT-TP
[1]; ATP 3.2 mM
  Fold resistance in RT-assay relative to HXB2: 4.1 fold
  Ki: 0.05 µM
  Ki/Km: 0.13
[1]; without ATP
  Fold resistance in RT-assay relative to HXB2: 0.3 fold
  Ki: 0.0006 µM
  Ki/Km: 0.01
[2]; ATP 3.2 mM
  Fold resistance in RT-assay relative to HXB2: 1.0 fold
  Ki: 0.01 µM
  Ki/Km: 0.032
[2]; without ATP
  Fold resistance in RT-assay relative to HXB2: 1.0 fold
[2]; ATP 3.2 mM + PPi 150 μM
  Ki: 0.059 µM
  Ki/Km: 0.11
[2]; ATP 6.0 mM
  Ki: 0.04 µM
  Ki/Km: 0.049
[2]; ATP […]
  Ki: 0.0048 µM
  Ki/Km: 0.02
[2]; GTP 0.5 mM
  Ki: 0.009 µM
  Ki/Km: 0.028
[2]; PPi 150 μM
  Ki: 0.026 µM
  Ki/Km: 0.087
[2]; [22]
  Ki: 0.0058 µM
  Ki/Km: 0.034
[3]; ATP 3.2 mM
  Fold resistance in RT-assay relative to HXB2: 5.9 fold
  Ki/Km: 0.19
[3]; without ATP
  Fold resistance in RT-assay relative to HXB2: 1.3 fold
  Ki: 0.0022 µM
  Ki/Km: 0.045
[4]; ATP 3.2 mM
  Fold resistance in RT-assay relative to HXB2: 3.0 fold
  Ki: 0.021 µM
  Ki/Km: 0.095
[4]; without ATP
  Fold resistance in RT-assay relative to HXB2: 0.8 fold
  Ki: 0.0017 µM
  Ki/Km: 0.026
[5]; ATP 3.2 mM
  Fold resistance in RT-assay relative to HXB2: 2.8 fold
  Ki: 0.052 µM
  Ki/Km: 0.09
[5]; without ATP
  Fold resistance in RT-assay relative to HXB2: 0.3 fold
  Ki: 0.0013 µM
  Ki/Km: 0.011
[6]; ATP 3.2 mM
  Fold resistance in RT-assay relative to HXB2: 14.0 fold
  Ki: 0.125 µM
  Ki/Km: 0.45
[6]; GTP 0.5 mM
  level of resistance in RT assay relative to wild type: 1.2–1.3 fold
[6]; PPi 150 μM
  level of resistance in RT assay relative to wild type: 3.3
[6]; without ATP
  Fold resistance in RT-assay relative to HXB2: 1.9 fold
  Ki: 0.0064 µM
  Ki/Km: 0.064
[7]; ATP 3.2 mM
  Fold resistance in RT-assay relative to HXB2: 3 fold and 2.9 fold
  Ki: 0.034 µM
  Ki/Km: 0.094
[7]; GTP 0.5 mM
  level of resistance in RT assay relative to wild type: 1.2–1.3 fold
[7]; PPi 150 μM
  level of resistance in RT assay relative to wild type: 1.1 fold
[7]; without ATP
  Fold resistance in RT-assay relative to HXB2: 0.8 fold
  Ki: 0.003 µM
  Ki/Km: 0.027
[8]; ATP 3.2 mM
  Fold resistance in RT-assay relative to HXB2: 20 fold and 19.7 fold
  Ki: 0.133 µM
  Ki/Km: 0.63
[8]; without ATP
  Fold resistance in RT-assay relative to HXB2: 0.9 fold
  Ki: 0.0014 µM
  Ki/Km: 0.031
[9]; ATP 3.2 mM
  Fold resistance in RT-assay relative to HXB2: 16.6 fold and 16.6 (+/−0.3) fold
  Ki: 0.039 µM
  Ki/Km: 0.53
[9]; ATP 3.2 mM + PPi 150 μM
  Fold resistance in RT-assay relative to HXB2: 12.6 fold and 12.6 (+/−3) fold
  Ki: 0.28 µM
  Ki/Km: 1.39
[9]; ATP 6.0 mM
  Fold resistance in RT-assay relative to HXB2: 15.9 (+/−4) fold
  Ki: 0.176 µM
  Ki/Km: 0.78
[9]; ATP […]
  Ki: 0.0064 µM
  Ki/Km: 0.1
[9]; GTP 0.5 mM
  Fold resistance in RT-assay relative to HXB2: 1.2 (+/−0.03) fold
  Ki: 0.004 µM
  Ki/Km: 0.034
[9]; PPi 150 μM
  Fold resistance in RT-assay relative to HXB2: 10.5 fold and 10.5 (+/−3) fold
  Ki: 0.083 µM
  Ki/Km: 0.92
[9]; [22]
  Fold resistance in RT-assay relative to HXB2: 0.9 fold and 0.9 (+/−0.1) fold
  Ki/Km: 0.03
[9]; [23]
  Ki: 0.02 µM
  Ki/Km: 0.46*
[9]; [24]
  Ki: 0.016 µM
  Ki/Km: 0.42*
[10]; ATP 3.2 mM
  Fold resistance in RT-assay relative to HXB2: 8.4 fold
  Ki: 0.096 µM
  Ki/Km: 0.27
[10]; without ATP
  Fold resistance in RT-assay relative to HXB2: 1.1 fold
  Ki: 0.0038 µM
  Ki/Km: 0.038

## Cc1cn([C@H]2C=C[C@@H](CO)O2)c(=O)[nH]c1=O [d4T, stavudine]
[11]; Human immunodeficiency virus 1, HXB2, MT4, read-out: mean IC50 for the wild type control virus
  IC50: 1.2 µM
[11]; wild type HXB2 virus (reference)
  Virus Assay fold resistance: 1.0 fold
[12]
  Fold resistance in IC50 relative to HXB2: 4.4 fold
[13]
  Fold resistance in IC50 relative to HXB2: 3.7 fold and 3.7 +/− 1.0 fold
[14]
  Fold resistance in IC50 relative to HXB2: 3.1 fold
[15]
  Fold resistance in IC50 relative to HXB2: 4.0 fold
[16]
  Fold resistance in IC50 relative to HXB2: 6.9 fold and 6.9 +/− 2.7 fold
[17]
  Fold resistance in IC50 relative to HXB2: 2.2 fold
[18]
  Fold resistance in IC50 relative to HXB2: 5.1 fold
[19]
  Fold resistance in IC50 relative to HXB2: 4.4 fold and 4.4 +/− 1.1 fold
[20]
  Fold resistance in IC50 relative to HXB2: 7.1 fold
[21]
  Fold resistance in IC50 relative to HXB2: 2.6 fold
